Data from patent publication US20150133297A1, “NEW ANTIFUNGAL COMPOSITIONS” (DSM IP ASSETS B.V., priority 2012, published 2015).
Several values for one entry are separate records, joined by “and”; a condition that tells them apart may be missing. Equal values may be shown once.

Tested on: Penicillium italicum
Test: Treatment of oranges (Examples 6-9): wounded, inoculated, wound treated with antifungal composition
Assay type: in vivo
Settings: for Observed antifungal activity O (%): oranges, 20° C.
Experimental: During incubation, mould growth on the strawberries was assessed in a twofold manner: (i) the number of moulded strawberries per total of 12 strawberries was counted; and (ii) the antifungal activity (in %) of the individual and combined active ingredients was determined by calculating the reduction in mould growth observed on the strawberries treated with the antifungal composition in comparison to the mould growth on the strawberries treated with the control composition. The expected antifungal activity (E in %) of the combined antifungal composition comprising both active ingredients was calculated according to the Colby equation (Colby, 1967): […]
Eight fresh, organic oranges were used per treatment. Each orange was soaked in a 180 ppm hypochlorite solution for 10 minutes, then rinsed thoroughly with fresh tap water and dried. The peel of each disinfected orange was wounded once using a cork borer according to the method described by de Lapeyre de Bellaire and Dubois (1987). Subsequently, each wound was inoculated with 10 μl of a Penicillium italicum suspension containing 5×10^5 of spores/ml. After incubation for 3 hours at 20° C., each wound and the orange peel area of 1 cm around the wound was treated with in total 150 μl of a freshly prepared aqueous antifungal composition comprising either 500 ppm natamycin (DSM Food Specialties, Delft, The Netherlands), 500 ppm fenpropidin or both. Each antifungal composition also comprised 3.2% (w/w) beeswax, 0.8% (w/w) glycerol, 0.7% (w/w) polyoxyethylene sorbitan monostearate (Tween 60), 0.1% (w/w) polyoxyethylene sorbitan monooleate (Tween 80), 0.05% (w/w) methylhydroxyethyl-cellulose (MHEC), 0.03% (w/w) anti-foaming agent, 0.02% (w/w) xanthan gum, 0.02% (w/w) citric acid, 0.01% (w/w) lactic acid and 0.01% potassium sorbate. A composition without natamycin or fenpropidin was used as control. […] The treated oranges were incubated in a closed box in the dark at 20° C. and assessed on mould growth during a 28-day incubation period. The antifungal activity (in %) of the individual and combined active ingredients was determined by calculating the reduction in mould growth observed on the oranges treated with the antifungal composition in comparison to the mould growth on the oranges treated with the control composition according to the Colby method (Colby, 1967) as described in Example 5.
(§1) The experiment was conducted as described in Example 6, except for the fact that each wounded and inoculated orange was treated with 150 μl of a freshly prepared aqueous antifungal composition comprising either 250 ppm natamycin (DSM Food Specialties, Delft, The Netherlands), 250 ppm fenpropidin or both. During the 26-day incubation period, the treated oranges were assessed on mould growth according to the two methods described in Example 5.
as §1, with “either 500” for “either 250”, “Netherlands), 400” for “Netherlands), 250”, “ppm spiroxamine” for “ppm fenpropidin”
as §1, with “Netherlands), 200” for “Netherlands), 250”, “ppm spiroxamine” for “ppm fenpropidin”

## C[C@@H]1C/C=C/C=C/C=C/C=C/[C@H](O[C@@H]2O[C@H](C)[C@@H](O)[C@H](N)[C@@H]2O)C[C@@H]2O[C@](O)(C[C@@H](O)C[C@H]3O[C@@H]3/C=C/C(=O)O1)C[C@H](O)[C@H]2C(=O)O [Natamycin, natamycin]
Day 11, 20° C., 250 ppm natamycin, 200 ppm spiroxamine or both
  Number of moulded oranges/total number of 8 oranges: 5 and 5/8
Day 12, 20° C., 250 ppm natamycin, 200 ppm spiroxamine or both
  Number of moulded oranges/total number of 8 oranges: 5 and 5/8
Day 13, 20° C., 250 ppm natamycin, 200 ppm spiroxamine or both
  Number of moulded oranges/total number of 8 oranges: 5/8
Day 14-15, 20° C., 250 ppm natamycin, 200 ppm spiroxamine or both
  Number of moulded oranges/total number of 8 oranges: 6/8
Day 14-16, 20° C., 500 ppm natamycin, 400 ppm spiroxamine or both
  Number of moulded oranges/total number of 8 oranges: 5/8
Day 16, 20° C., 250 ppm natamycin, 200 ppm spiroxamine or both
  Number of moulded oranges/total number of 8 oranges: 6 and 6/8
Day 18, 20° C., 250 ppm natamycin, 200 ppm spiroxamine or both
  Number of moulded oranges/total number of 8 oranges: 6 and 6/8
Day 18, 20° C., 250 ppm natamycin, 250 ppm fenpropidin or both
  Number of moulded oranges/total number of 8 oranges: 6/8
Day 18, 20° C., 500 ppm natamycin, 400 ppm spiroxamine or both
  Number of moulded oranges/total number of 8 oranges: 6/8
Day 19, 20° C., 250 ppm natamycin, 250 ppm fenpropidin or both
  Number of moulded oranges/total number of 8 oranges: 7/8
Day 19-21, 20° C., 500 ppm natamycin, 400 ppm spiroxamine or both
  Number of moulded oranges/total number of 8 oranges: 6 and 6/8
Day 19-25, 20° C., 250 ppm natamycin, 200 ppm spiroxamine or both
  Number of moulded oranges/total number of 8 oranges: 7/8
Day 20, 20° C., 250 ppm natamycin, 250 ppm fenpropidin or both
  Number of moulded oranges/total number of 8 oranges: 7/8
Day 21-22, 20° C., 250 ppm natamycin, 250 ppm fenpropidin or both
  Number of moulded oranges/total number of 8 oranges: 7 and 7/8
Day 22-23, 20° C., 500 ppm natamycin, 400 ppm spiroxamine or both
  Number of moulded oranges/total number of 8 oranges: 6 and 6/8
Day 23-26, 20° C., 250 ppm natamycin, 250 ppm fenpropidin or both
  Number of moulded oranges/total number of 8 oranges: 7 and 7/8
Day 26, 20° C., 250 ppm natamycin, 200 ppm spiroxamine or both
  Number of moulded oranges/total number of 8 oranges: 7/8
Days 19 through 26, 250 ppm natamycin, 200 ppm spiroxamine or both
  moulded oranges of the 8 oranges: 7
Day 11, 250 ppm natamycin, 200 ppm spiroxamine or both
  Observed antifungal activity O (%): 80%
Day 12, 250 ppm natamycin, 200 ppm spiroxamine or both
  Observed antifungal activity O (%): 73%
Day 13, 250 ppm natamycin, 200 ppm spiroxamine or both
  Observed antifungal activity O (%): 63%
Day 14, 250 ppm natamycin, 200 ppm spiroxamine or both
  Observed antifungal activity O (%): 50%
Day 15, 250 ppm natamycin, 200 ppm spiroxamine or both
  Observed antifungal activity O (%): 46%
Day 16, 250 ppm natamycin, 200 ppm spiroxamine or both
  Observed antifungal activity O (%): 43%
Day 18, 250 ppm natamycin, 200 ppm spiroxamine or both
  Observed antifungal activity O (%): 41%
Day 18, 250 ppm natamycin, 250 ppm fenpropidin or both
  Observed antifungal activity O (%): 41%
Day 18, 500 ppm natamycin, 400 ppm spiroxamine or both
  Observed antifungal activity O (%): 32%
Day 19, 250 ppm natamycin, 200 ppm spiroxamine or both
  Observed antifungal activity O (%): 36%
Day 19, 250 ppm natamycin, 250 ppm fenpropidin or both
  Observed antifungal activity O (%): 36%
Day 19, 500 ppm natamycin, 400 ppm spiroxamine or both
  Observed antifungal activity O (%): 29%
Day 20, 250 ppm natamycin, 200 ppm spiroxamine or both
  Observed antifungal activity O (%): 34%
Day 20, 250 ppm natamycin, 250 ppm fenpropidin or both
  Observed antifungal activity O (%): 34%
Day 20, 500 ppm natamycin, 400 ppm spiroxamine or both
  Observed antifungal activity O (%): 20%
Day 21, 250 ppm natamycin, 200 ppm spiroxamine or both
  Observed antifungal activity O (%): 32%
Day 21, 250 ppm natamycin, 250 ppm fenpropidin or both
  Observed antifungal activity O (%): 32%
Day 21, 500 ppm natamycin, 400 ppm spiroxamine or both
  Observed antifungal activity O (%): 16%
Day 22, 250 ppm natamycin, 200 ppm spiroxamine or both
  Observed antifungal activity O (%): 29%
Day 22, 250 ppm natamycin, 250 ppm fenpropidin or both
  Observed antifungal activity O (%): 29%
Day 22, 500 ppm natamycin, 400 ppm spiroxamine or both
  Observed antifungal activity O (%): 14%
Day 22, 500 ppm natamycin, 500 ppm fenpropidin or both
  Observed antifungal activity O (%): 14%
Day 23, 250 ppm natamycin, 200 ppm spiroxamine or both
  Observed antifungal activity O (%): 25%
Day 23, 250 ppm natamycin, 250 ppm fenpropidin or both
  Observed antifungal activity O (%): 25%
Day 23, 500 ppm natamycin, 400 ppm spiroxamine or both
  Observed antifungal activity O (%): 14%
Day 23, 500 ppm natamycin, 500 ppm fenpropidin or both
  Observed antifungal activity O (%): 14%
Day 25-26, 500 ppm natamycin, 400 ppm spiroxamine or both
  Observed antifungal activity O (%): 14%
Day 25, 250 ppm natamycin, 200 ppm spiroxamine or both
  Observed antifungal activity O (%): 19%
Day 25, 250 ppm natamycin, 250 ppm fenpropidin or both
  Observed antifungal activity O (%): 19%
Day 25, 500 ppm natamycin, 500 ppm fenpropidin or both
  Observed antifungal activity O (%): 14%
Day 26, 250 ppm natamycin, 200 ppm spiroxamine or both
  Observed antifungal activity O (%): 17%
Day 26, 250 ppm natamycin, 250 ppm fenpropidin or both
  Observed antifungal activity O (%): 17%
Day 26, 500 ppm natamycin, 500 ppm fenpropidin or both
  Observed antifungal activity O (%): 14%
Day 27, 500 ppm natamycin, 500 ppm fenpropidin or both
  Observed antifungal activity O (%): 14%
Day 28, 500 ppm natamycin, 500 ppm fenpropidin or both
  Observed antifungal activity O (%): 14%
